Measurements from patent US20200131129A1, “FARNESOID X RECEPTOR AGONISTS AND USES THEREOF” (Metacrine, Inc., priority 2017, published 2020).

Biological target: T1, hFXR (Homo sapiens, UniProt Q96RI1)
T1 construct: expressed in transfected cells; host or cells: CV-1 cells
T1 sequence (Q96RI1 1-486): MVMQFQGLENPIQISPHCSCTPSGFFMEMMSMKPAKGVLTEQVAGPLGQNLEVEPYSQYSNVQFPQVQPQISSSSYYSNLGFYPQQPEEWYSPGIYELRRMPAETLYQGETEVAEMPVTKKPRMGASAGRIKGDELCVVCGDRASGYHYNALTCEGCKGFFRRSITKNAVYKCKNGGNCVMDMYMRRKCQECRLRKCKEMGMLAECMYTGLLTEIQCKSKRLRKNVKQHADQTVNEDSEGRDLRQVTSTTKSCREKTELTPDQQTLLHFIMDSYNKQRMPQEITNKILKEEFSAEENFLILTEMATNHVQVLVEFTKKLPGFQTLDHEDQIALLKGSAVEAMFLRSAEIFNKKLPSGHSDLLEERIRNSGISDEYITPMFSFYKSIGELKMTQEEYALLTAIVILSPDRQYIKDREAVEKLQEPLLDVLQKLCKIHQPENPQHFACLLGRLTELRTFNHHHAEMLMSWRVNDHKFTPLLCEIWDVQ
T1 sequence (P19793 1-462 partner): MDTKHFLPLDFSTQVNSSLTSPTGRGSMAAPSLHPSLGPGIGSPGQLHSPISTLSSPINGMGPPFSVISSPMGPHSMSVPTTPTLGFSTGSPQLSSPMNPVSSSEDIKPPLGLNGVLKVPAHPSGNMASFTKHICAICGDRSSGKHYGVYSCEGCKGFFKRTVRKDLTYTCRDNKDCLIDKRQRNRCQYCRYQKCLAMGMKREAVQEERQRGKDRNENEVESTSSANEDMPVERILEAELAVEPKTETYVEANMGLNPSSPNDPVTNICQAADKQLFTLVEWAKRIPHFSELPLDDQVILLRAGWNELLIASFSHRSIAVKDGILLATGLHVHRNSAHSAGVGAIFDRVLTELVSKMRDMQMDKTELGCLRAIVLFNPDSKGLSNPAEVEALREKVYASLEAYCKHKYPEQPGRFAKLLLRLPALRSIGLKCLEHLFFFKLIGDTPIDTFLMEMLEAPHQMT
Assay: In Vitro FXR Assay (TK): hFXR/hRXR TK-ECRE-luc reporter in transfected CV-1 cells
Type: cell-based
Conditions: CV-1 cells transfected with hFXR, hRXR, 18 hrs incubation, luminescence, maximum efficacy <25% of Fexarmine control also classified as ‘+’
Description: Example B-1: In Vitro FXR Assay (TK)
CV-1 cells were seeded at a density of 2,000,000 cells in a T175 flask with DMEM+10% charcoal double-stripped FBS and incubated at 37° C. in 5% CO2 for 18 h (O/N).
After 18 h of incubation, the medium in the T175 flask was changed with fresh DMEM+10% charcoal super-stripped serum. In a polypropylene tube, 2500 μL OptiMEM (Life Technologies, Cat #31985-062) was combined with expression plasmids for hFXR, hRXR, TK-ECRE-luc and pCMX-YFP. The tube was then briefly vortexed and incubated at room temperature for 5 minutes. Transfection reagent (X-tremeGENE HP from Roche, Cat #06 366 236 001) was added to the OptiMEM/plasmid mixture vortexed and incubated at room temperature for 20 minutes. Following incubation, the transfection reagent/DNA mixture complex was added to cells in the T175 flask and the cells were incubated at 37° C. in 5% CO2 for 18 h (0/N).
Compounds were serially diluted in DMSO and added to transfected CV-1 cells. The cells were then incubated for 18 hrs. The next day cells were lysed and examined for luminescence.

EC50 [nM] | Structure (SMILES)
≤ 500 | COc1ccc([C@H]2CC[C@H](CN(c3cccc(-c4cc(C)on4)c3)C(=O)[C@H]3CC[C@H](O)CC3)CC2)cc1C [Compound 9.08, trans-4-Hydroxy-N-((trans-4-(4-methoxy-3-methylphenyl)cyclohexyl)methyl)-N-(3-(5-methylisoxazol-3-yl)phenyl)cyclohexanecarboxamide]
≥ 1000 | COc1ccc([C@H]2CC[C@H](CN(c3cccc(-n4cc(C)nn4)c3)C(=O)[C@H]3CC[C@H](O)CC3)CC2)cc1C [Compound 9.09, trans-4-Hydroxy-N-((trans-4-(4-methoxy-3-methylphenyl)cyclohexyl)methyl)-N-(3-(4-methyl-1H-1,2,3-triazol-1-yl)phenyl)cyclohexanecarboxamide]
≥ 1000 | COc1ccc([C@H]2CC[C@H](CN(c3cccc(-n4ncc(C)n4)c3)C(=O)[C@H]3CC[C@H](O)CC3)CC2)cc1C [Compound 9.10, trans-4-Hydroxy-N-((trans-4-(4-methoxy-3-methylphenyl)cyclohexyl)methyl)-N-(3-(4-methyl-2H-1,2,3-triazol-2-yl)phenyl)cyclohexanecarboxamide]
500 to 1000 | COc1ccc([C@H]2CC[C@H](CN(c3cccc(-c4noc(C)n4)c3)C(=O)[C@H]3CC[C@H](O)CC3)CC2)cc1C [Compound 9.11, trans-4-Hydroxy-N-((trans-4-(4-methoxy-3-methylphenyl)cyclohexyl)methyl)-N-(3-(5-methyl-1,2,4-oxadiazol-3-yl)phenyl)cyclohexanecarboxamide]
≤ 500 | COc1ccc([C@H]2CC[C@H](CN(c3cccc(-c4cnc(C5CC5)o4)c3)C(=O)[C@H]3CC[C@H](O)CC3)CC2)cc1C [Compound 9.12, trans-N-(3-(2-Cyclopropyloxazol-5-yl)phenyl)-4-hydroxy-N-((trans-4-(4-methoxy-3-methylphenyl)cyclohexyl)methyl) cyclohexanecarboxamide]
≤ 500 | COc1ccc([C@H]2CC[C@H](CN(c3cccc(-c4cc(C5CC5)no4)c3)C(=O)[C@H]3CC[C@H](O)CC3)CC2)cc1C [Compound 9.13, trans-N-(3-(3-cyclopropylisoxazol-5-yl)phenyl)-4-hydroxy-N-((trans-4-(4-methoxy-3-methylphenyl)cyclohexyl)methyl) cyclohexanecarboxamide]
≤ 500 | COc1ccc([C@H]2CC[C@H](CN(c3cccc(-c4cc(C5CC5)on4)c3)C(=O)[C@H]3CC[C@H](O)CC3)CC2)cc1C [Compound 9.14, trans-N-(3-(5-Cyclopropylisoxazol-3-yl)phenyl)-4-hydroxy-N-((trans-4-(4-methoxy-3-methylphenyl)cyclohexyl)methyl) cyclohexanecarboxamide]
≤ 500 | COc1ccc([C@H]2CC[C@H](CN(c3cccc(-c4coc(C5CC5)n4)c3)C(=O)[C@H]3CC[C@H](O)CC3)CC2)cc1C [Compound 9.15]
≤ 500 | COc1ccc(C23CCC(CN(c4cccc(-c5cc(C6CC6)ns5)c4)C(=O)[C@H]4CC[C@H](O)CC4)(CC2)CC3)cc1C [Compound 10.01, trans-N-(3-(3-Cyclopropylisothiazol-5-yl)phenyl)-4-hydroxy-N-((4-(4-methoxy-3-methylphenyl)bicyclo[2.2.2]octan-1-yl)methyl)cyclohexanecarboxamide]
≤ 500 | CN(C)c1ccc([C@H]2CC[C@H](CN(c3cccc(-c4coc(C5CC5)n4)c3)C(=O)[C@H]3CC[C@H](O)CC3)CC2)cn1 [Compound 10.02, trans-N-(3-(2-Cyclopropyloxazol-4-yl)phenyl)-N-((trans-4-(6-(dimethylamino)pyridine-3-yl)cyclohexyl)methyl)-4-hydroxycyclohexanecarboxamide]
≤ 500 | CN(C)c1ccc(C23CCC(CN(c4cccc(-c5coc(C6CC6)n5)c4)C(=O)[C@H]4CC[C@H](O)CC4)(CC2)CC3)cn1 [Compound 10.03, trans-N-(3-(2-Cyclopropyloxazol-4-yl)phenyl)-N-((4-(6-(dimethylamino)pyridine-3-yl)bicyclo[2.2.2]octan-1-yl)methyl)-4-hydroxycyclohexanecarboxamide]
≤ 500 | COc1ccc([C@H]2CC[C@H](CN(c3cccc(-c4coc(C(C)C)n4)c3)C(=O)[C@H]3CC[C@H](O)CC3)CC2)cc1C [Compound 10.04, trans-4-Hydroxy-N-(3-(2-isopropyloxazol-4-yl)phenyl)-N-((trans-4-(4-methoxy-3-methylphenyl)cyclohexyl)methyl) cyclohexanecarboxamide]
≤ 500 | COc1ccc([C@H]2CC[C@H](CN(c3cccc(-c4coc(C(C)C)n4)c3)C(=O)[C@H]3CC[C@H](O)CC3)CC2)nc1C [Compound 10.05, trans-4-Hydroxy-N-(3-(2-isopropyloxazol-4-yl)phenyl)-N-((trans-4-(5-methoxy-6-methylpyridin-2-yl)cyclohexyl)methyl) cyclohexanecarboxamide]
≤ 500 | COc1ccc([C@H]2CC[C@H](CN(c3cccc(-c4coc(C5CC5)n4)c3)C(=O)[C@H]3CC[C@H](O)CC3)CC2)nc1C [Compound 10.06, trans-N-(3-(2-Cyclopropyloxazol-4-yl)phenyl)-4-hydroxy-N-((trans-4-(5-methoxy-6-methylpyridin-2-yl)cyclohexyl)methyl) cyclohexanecarboxamide]
≤ 500 | COc1ccc([C@H]2CC[C@H](CN(c3cc(-c4coc(C5CC5)n4)ccn3)C(=O)[C@H]3CC[C@H](O)CC3)CC2)cc1C [Compound 10.07, trans-N-(4-(2-Cyclopropyloxazol-4-yl)pyridine-2-yl)-4-hydroxy-N-((trans-4-(4-methoxy-3-methylphenyl)cyclohexyl)methyl) cyclohexanecarboxamide]
≤ 500 | COc1ccc([C@H]2CC[C@H](CN(c3cccc(-c4cc(C5CC5)ns4)c3)C(=O)[C@H]3CC[C@H](O)CC3)CC2)nc1C [Compound 10.08, trans-N-(3-(3-Cyclopropylisothiazol-5-yl)phenyl)-4-hydroxy-N-((trans-4-(5-methoxy-6-methylpyridin-2-yl)cyclohexyl)methyl) cyclohexanecarboxamide]
≤ 500 | COc1ccc([C@H]2CC[C@H](CN(c3cc(-c4coc(C5CC5)n4)ccn3)C(=O)[C@H]3CC[C@H](O)CC3)CC2)nc1C [Compound 10.09, trans-N-(4-(2-Cyclopropyloxazol-4-yl)pyridine-2-yl)-4-hydroxy-N-((trans-4-(5-methoxy-6-methylpyridin-2-yl)cyclohexyl)methyl) cyclohexanecarboxamide]
≥ 1000 | COc1ccc([C@H]2CC[C@@H](CN(c3cccc(-c4coc(C5CC5)n4)c3)C(=O)[C@H]3CC[C@H](O)CC3)CC2)nc1C [Compound 10.10, trans-N-(3-(2-Cyclopropyloxazol-4-yl)phenyl)-4-hydroxy-N-((cis-4-(5-methoxy-6-methylpyridin-2-yl)cyclohexyl)methyl) cyclohexanecarboxamide]
≤ 500 | COc1ccc([C@H]2CC[C@H](CN(c3cccc(-c4coc(C5CC5)n4)c3)C(=O)[C@H]3CC[C@H](O)CC3)CC2)cc1C#N [Compound 10.11, trans-N-((trans-4-(3-Cyano-4-methoxyphenyl)cyclohexyl)methyl)-N-(3-(2-cyclopropyloxazol-4-yl)phenyl)-4-hydroxycyclohexanecarboxamide]
≤ 500 | COc1ccc([C@H]2CC[C@H](CN(c3cc(-c4coc(C5CC5)n4)ccn3)C(=O)[C@H]3CC[C@H](O)CC3)CC2)cc1C#N [Compound 10.12, trans-N-((trans-4-(3-Cyano-4-methoxyphenyl)cyclohexyl)methyl)-N-(4-(2-cyclopropyloxazol-4-yl)pyridine-2-yl)-4-hydroxycyclohexanecarboxamide]
≤ 500 | COc1ccc([C@H]2CC[C@H](CN(c3cc(-c4coc(C(C)C)n4)ccn3)C(=O)[C@H]3CC[C@H](O)CC3)CC2)cc1C [Compound 10.13, trans-4-Hydroxy-N-(4-(2-isopropyloxazol-4-yl)pyridine-2-yl)-N-((trans-4-(4-methoxy-3-methylphenyl)cyclohexyl)methyl) cyclohexanecarboxamide]
